From patent US11739098B2 (BRISTOL-MYERS SQUIBB COMPANY, priority 2017, dated 2023) come the findings set out here.

Common to all, as to type: cell-based
In one experiment the target is T1, human TLR7 (Homo sapiens, UniProt Q9NYK1).
T1 construct: host or cells: HEK-Blue cells (HEK293-derived reporter line)
T1 sequence (Q9NYK1 27-1049): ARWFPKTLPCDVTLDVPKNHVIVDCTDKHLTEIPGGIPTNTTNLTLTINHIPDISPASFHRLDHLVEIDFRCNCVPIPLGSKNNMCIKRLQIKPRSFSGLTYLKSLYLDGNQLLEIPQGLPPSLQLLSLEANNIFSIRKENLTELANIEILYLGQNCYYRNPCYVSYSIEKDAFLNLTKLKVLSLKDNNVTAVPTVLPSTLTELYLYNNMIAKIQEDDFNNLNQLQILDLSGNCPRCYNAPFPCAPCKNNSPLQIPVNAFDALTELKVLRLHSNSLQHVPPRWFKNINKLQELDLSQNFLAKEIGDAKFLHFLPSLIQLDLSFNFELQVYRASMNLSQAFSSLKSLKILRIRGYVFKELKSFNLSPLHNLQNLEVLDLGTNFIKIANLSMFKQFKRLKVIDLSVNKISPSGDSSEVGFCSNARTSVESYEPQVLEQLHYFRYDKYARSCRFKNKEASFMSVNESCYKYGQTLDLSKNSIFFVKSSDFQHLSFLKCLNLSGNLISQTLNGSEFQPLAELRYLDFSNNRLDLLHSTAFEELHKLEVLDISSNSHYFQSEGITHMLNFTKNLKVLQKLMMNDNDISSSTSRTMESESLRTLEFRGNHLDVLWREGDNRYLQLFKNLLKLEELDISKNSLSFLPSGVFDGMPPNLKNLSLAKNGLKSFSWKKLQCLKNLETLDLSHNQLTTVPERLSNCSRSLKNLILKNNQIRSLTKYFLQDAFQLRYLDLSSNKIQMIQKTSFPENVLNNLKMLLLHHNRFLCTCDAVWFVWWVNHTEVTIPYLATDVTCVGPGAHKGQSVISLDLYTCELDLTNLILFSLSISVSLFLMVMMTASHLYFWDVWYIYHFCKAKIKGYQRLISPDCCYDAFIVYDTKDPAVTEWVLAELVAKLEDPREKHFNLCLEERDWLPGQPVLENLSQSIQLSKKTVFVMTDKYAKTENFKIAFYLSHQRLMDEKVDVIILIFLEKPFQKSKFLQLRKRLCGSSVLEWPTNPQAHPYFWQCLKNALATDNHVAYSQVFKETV
In words: TLR7 inhibition reporter assay (HEK-Blue cells, SEAP reporter, gardiquimod stimulation). Particulars: HEK-Blue cells overexpressing human TLR7, SEAP reporter, gardiquimod 7.5 μM. In outline:
(§1)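 HEK-Blue cells overexpressing human TLR7, TLR8 or TLR9 (NF-κB/AP-1-driven SEAP) pre-treated 30 min at room temperature with compound (0.05 nM–50 μM), then stimulated with gardiquimod 7.5 μM (TLR7), R848 15.9 μM (TLR8) or ODN2006 5 nM (TLR9). SEAP read colorimetrically after 22 h at 37 °C; % inhibition calculated.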
(In general: A reporter such as luciferase makes a cellular process visible.)

The next experiment has as its target T2, human TLR8 (Homo sapiens, UniProt Q9NR97).
T2 construct: host or cells: HEK-Blue cells (HEK293-derived reporter line)
T2 sequence (Q9NR97 27-1041): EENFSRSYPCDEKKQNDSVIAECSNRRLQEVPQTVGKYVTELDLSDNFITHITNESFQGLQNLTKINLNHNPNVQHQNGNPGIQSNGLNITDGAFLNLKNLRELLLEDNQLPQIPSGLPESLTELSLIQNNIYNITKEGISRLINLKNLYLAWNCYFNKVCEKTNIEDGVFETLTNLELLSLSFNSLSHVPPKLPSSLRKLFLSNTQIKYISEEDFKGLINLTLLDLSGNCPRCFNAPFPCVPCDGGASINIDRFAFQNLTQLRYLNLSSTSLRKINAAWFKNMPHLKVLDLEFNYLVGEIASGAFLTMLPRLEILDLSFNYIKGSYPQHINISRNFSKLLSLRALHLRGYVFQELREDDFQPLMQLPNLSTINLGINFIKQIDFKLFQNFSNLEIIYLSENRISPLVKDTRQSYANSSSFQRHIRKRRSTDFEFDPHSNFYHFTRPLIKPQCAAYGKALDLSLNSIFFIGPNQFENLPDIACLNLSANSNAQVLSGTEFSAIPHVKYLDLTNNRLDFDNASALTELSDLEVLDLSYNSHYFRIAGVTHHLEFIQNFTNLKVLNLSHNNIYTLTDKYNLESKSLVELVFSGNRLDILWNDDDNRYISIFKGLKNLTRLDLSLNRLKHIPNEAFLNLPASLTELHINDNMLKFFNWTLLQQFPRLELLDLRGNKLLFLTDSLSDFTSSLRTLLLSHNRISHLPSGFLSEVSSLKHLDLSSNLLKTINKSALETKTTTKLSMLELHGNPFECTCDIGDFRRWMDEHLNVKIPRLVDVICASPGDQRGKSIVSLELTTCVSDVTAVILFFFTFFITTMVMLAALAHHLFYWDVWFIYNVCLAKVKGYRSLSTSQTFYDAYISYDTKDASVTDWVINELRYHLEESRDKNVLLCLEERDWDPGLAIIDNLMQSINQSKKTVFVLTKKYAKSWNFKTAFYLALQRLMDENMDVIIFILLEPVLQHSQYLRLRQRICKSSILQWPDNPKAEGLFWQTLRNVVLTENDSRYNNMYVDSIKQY
Put plainly: TLR8 inhibition reporter assay (HEK-Blue cells, SEAP reporter, R848 stimulation). Particulars: HEK-Blue cells overexpressing human TLR8, SEAP reporter, R848 15.9 μM. In outline: as §1

In another experiment the target is T3, human TLR9 (Homo sapiens, UniProt Q9NR96).
T3 construct: host or cells: HEK-Blue cells (HEK293-derived reporter line)
T3 sequence (Q9NR96 26-1032): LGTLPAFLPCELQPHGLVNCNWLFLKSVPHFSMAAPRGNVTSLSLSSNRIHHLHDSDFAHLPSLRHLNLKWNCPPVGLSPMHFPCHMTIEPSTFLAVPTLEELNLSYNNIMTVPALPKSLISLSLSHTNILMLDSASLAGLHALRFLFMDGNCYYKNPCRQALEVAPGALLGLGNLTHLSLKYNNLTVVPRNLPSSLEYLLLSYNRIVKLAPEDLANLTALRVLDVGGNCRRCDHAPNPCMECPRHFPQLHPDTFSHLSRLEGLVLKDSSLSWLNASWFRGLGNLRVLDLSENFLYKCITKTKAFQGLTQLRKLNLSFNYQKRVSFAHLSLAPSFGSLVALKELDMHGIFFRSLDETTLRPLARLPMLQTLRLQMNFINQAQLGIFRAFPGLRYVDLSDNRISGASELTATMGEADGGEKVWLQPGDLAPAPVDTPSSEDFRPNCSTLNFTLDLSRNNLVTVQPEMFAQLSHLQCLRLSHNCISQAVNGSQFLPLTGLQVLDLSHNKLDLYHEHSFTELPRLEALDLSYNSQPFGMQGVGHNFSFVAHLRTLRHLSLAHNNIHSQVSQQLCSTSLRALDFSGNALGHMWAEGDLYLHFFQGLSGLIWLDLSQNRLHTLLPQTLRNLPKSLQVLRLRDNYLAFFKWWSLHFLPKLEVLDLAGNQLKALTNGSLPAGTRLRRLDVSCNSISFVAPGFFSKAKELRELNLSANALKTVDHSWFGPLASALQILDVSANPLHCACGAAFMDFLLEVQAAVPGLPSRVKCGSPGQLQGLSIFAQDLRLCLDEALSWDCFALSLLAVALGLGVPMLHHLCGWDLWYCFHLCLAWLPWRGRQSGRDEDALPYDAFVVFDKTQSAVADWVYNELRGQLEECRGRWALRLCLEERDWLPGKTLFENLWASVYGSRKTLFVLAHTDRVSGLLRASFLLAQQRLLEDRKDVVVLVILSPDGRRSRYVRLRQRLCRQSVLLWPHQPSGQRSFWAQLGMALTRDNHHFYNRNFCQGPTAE
In words: TLR9 inhibition reporter assay (HEK-Blue cells, SEAP reporter, ODN2006 stimulation). As to conditions: HEK-Blue cells overexpressing human TLR9, SEAP reporter, ODN2006 5 nM. A digest of the protocol:
as §1

Broadly, the IC50 is the concentration at which inhibition is half-maximal.

Regarding `CCc1c(-c2ccnc3[nH]nc(C)c23)[nH]c2ccc(C3CCN(Cc4cnc[nH]4)CC3)cc12` [Example 873, 4-(5-(1-((1H-imidazol-5-yl)methyl)piperidin-4-yl)-3-ethyl-1H-indol-2-yl)-3-methyl-1H-pyrazolo[3,4-b]pyridine], the figures for the IC50 against human TLR7, at human TLR8 and against human TLR9 were less than 100 nM, less than 100 nM and 100 to 1000 nM, respectively.

As for `CC(C)c1c(-c2cc(Cl)c3ncccc3c2)[nH]c2ccc(C3CCNCC3)cc12` [Example 139, 8-chloro-6-(3-isopropyl-5-(piperidin-4-yl)-1H-indol-2-yl)quinoline], the IC50 was less than 100 nM against human TLR7, less than 100 nM against human TLR8 and 1000 to 50000 nM at human TLR9.

With `CNCCN1CCC(c2ccc3[nH]c(-c4cccc5cccnc45)c(C)c3c2)CC1` [Example 662, N-methyl-2-(4-(3-methyl-2-(quinolin-8-yl)-1H-indol-5-yl)piperidin-1-yl)ethan-1-amine], the figures for the IC50 at human TLR7, against human TLR8 and against human TLR9 were 1000 to 50000 nM, greater than 3130 nM and 1000 to 50000 nM, respectively.

As to `Cc1cc(-c2[nH]c3ccc(C4CCNCC4)cc3c2C(C)C)c2[nH]c(C)cc2n1` [Example 40, 7-(3-isopropyl-5-(piperidin-4-yl)-1H-indol-2-yl)-2,5-dimethyl-1H-pyrrolo[3,2-b]pyridine], the IC50 against human TLR7 is 1000 to 50000 nM; on human TLR8, 1000 to 50000 nM; at human TLR9 it was 100 to 1000 nM.

Turning to `Cc1cc(-c2[nH]c3ccc(C4CCN(C(=O)C[C@@H](C)O)CC4)cc3c2C(C)C)cn2nnnc12` [Example 594, (R)-3-hydroxy-1-(4-(3-isopropyl-2-(8-methyltetrazolo[1,5-a]pyridin-6-yl)-1H-indol-5-yl)piperidin-1-yl)butan-1-one], the IC50 against human TLR7 is less than 100 nM; against human TLR8 it was less than 100 nM; on human TLR9, 1000 to 50000 nM.

With `Cc1ccnc2[nH]cc(-c3[nH]c4ccc(C5CCN(C6CCOCC6)CC5)cc4c3C(C)C)c12` [Example 690, 3-(3-isopropyl-5-(1-(tetrahydro-2H-pyran-4-yl)piperidin-4-yl)-1H-indol-2-yl)-4-methyl-1H-pyrrolo[2,3-b]pyridine], the IC50 at human TLR7 was less than 100 nM; on human TLR8, less than 100 nM; on human TLR9 it was 1000 to 50000 nM.

Regarding `COc1cc(-c2[nH]c3ccc(C4CCN(CC(=O)N(C)C)CC4)cc3c2C(C)C)cc2ncnn12` [Example 333, 2-(4-(3-isopropyl-2-(5-methoxy-[1,2,4]triazolo[1,5-a]pyridin-7-yl)-1H-indol-5-yl)piperidin-1-yl)-N,N-dimethylacetamide], the IC50 was less than 100 nM at human TLR7, less than 100 nM on human TLR8 and 1000 to 50000 nM against human TLR9.

`Cc1nc(CN2CCC(c3ccc4[nH]c(-c5ccc6nccn6c5)c(CC(F)F)c4c3)CC2)c[nH]1` [Example 939, 6-(3-(2,2-difluoroethyl)-5-(1-((2-methyl-1H-imidazol-4-yl)methyl)piperidin-4-yl)-1H-indol-2-yl)imidazo[1,2-a]pyridine]: the IC50 against human TLR7, against human TLR8 and at human TLR9 was 100 to 1000 nM in each case.

On to `COc1ccc2nc(Cl)c(CN3CCC(c4ccc5[nH]c(-c6ccnc7[nH]ncc67)c(C(C)C)c5c4)CC3)cc2c1` [Example 902, 2-chloro-3-((4-(3-isopropyl-2-(1H-pyrazolo[3,4-b]pyridin-4-yl)-1H-indol-5-yl)piperidin-1-yl)methyl)-6-methoxyquinoline], for which the IC50 is 100 to 1000 nM at human TLR7, 100 to 1000 nM against human TLR8 and greater than 50000 nM against human TLR9.

As to `CC(C)c1c(-c2ccnc3[nH]ncc23)[nH]c2ccc(C3CCNCC3F)cc12` (stereo not drawn) [Example 171, 4-(5-(3-fluoropiperidin-4-yl)-3-isopropyl-1H-indol-2-yl)-1H-pyrazolo[3,4-b]pyridine], the values for the concentration for half-maximal inhibition (IC50) at human TLR7, against human TLR8 and against human TLR9 were less than 100 nM, less than 100 nM and 1000 to 50000 nM, respectively.

As to `CC(C)c1c(-c2cnc3[nH]ccc3c2)[nH]c2ccc(C3CCN(C(=O)CN(C)C)CC3)cc12` [Example 563, 2-(dimethylamino)-1-(4-(3-isopropyl-2-(1H-pyrrolo[2,3-b]pyridin-5-yl)-1H-indol-5-yl)piperidin-1-yl)ethan-1-one], the concentration for half-maximal inhibition (IC50) lay within 100 to 1000 nM at human TLR7, 1000 to 50000 nM against human TLR8 and 1000 to 50000 nM against human TLR9.

With `Cc1cc(-c2[nH]c3ccc(C4CCN(C(=O)[C@@H]5C[C@@H](O)CN5)CC4)cc3c2C(C)C)cc2nccn12` [Example 539, ((2S,4R)-4-hydroxypyrrolidin-2-yl)(4-(3-isopropyl-2-(5-methylimidazo[1,2-a]pyridin-7-yl)-1H-indol-5-yl)piperidin-1-yl)methanone], the IC50 on human TLR7, against human TLR8 and on human TLR9 was 1000 to 50000 nM throughout.
